Measurements as given in the kinase profiling compilation of Christmann-Franck et al. (2016).

Columns and labels:
Experiment in all cases: radiometric filter-binding kinase assay
CSK (human) = CSK (human) (UniProt P41240)
DYRK3 (human) = DYRK3 (human) (UniProt O43781)
LCK (mouse) = settings: accession and sequence are those of the human protein
TAOK1 (human) = TAOK1 (human) (UniProt Q7L7X3)
PAK4 (human) = PAK4 (human) (UniProt O96013)
MST4 (human) = MST4 (human) (UniProt Q9P289)
[1] = tested on: AKT1 (human), P31749 [S473D]
EPHB2 (human) = EPHB2 (human) (UniProt P29323)
EPHA4 (human) = EPHA4 (human) (UniProt P54764)
MARK2 (human) = MARK2 (human) (UniProt Q7KZI7)
PAK6 (human) = PAK6 (human) (UniProt Q9NQU5)
MINK1 (human) = MINK1 (human) (UniProt Q8N4C8)
MAP2K1 (human) = MAP2K1 (human) (UniProt Q02750)
MAPK10 (human) = MAPK10 (human) (UniProt P53779)
TBK1 (human) = TBK1 (human) (UniProt Q9UHD2)
Sequence of TBK1 (human) (Q9UHD2 whole entry, looked up): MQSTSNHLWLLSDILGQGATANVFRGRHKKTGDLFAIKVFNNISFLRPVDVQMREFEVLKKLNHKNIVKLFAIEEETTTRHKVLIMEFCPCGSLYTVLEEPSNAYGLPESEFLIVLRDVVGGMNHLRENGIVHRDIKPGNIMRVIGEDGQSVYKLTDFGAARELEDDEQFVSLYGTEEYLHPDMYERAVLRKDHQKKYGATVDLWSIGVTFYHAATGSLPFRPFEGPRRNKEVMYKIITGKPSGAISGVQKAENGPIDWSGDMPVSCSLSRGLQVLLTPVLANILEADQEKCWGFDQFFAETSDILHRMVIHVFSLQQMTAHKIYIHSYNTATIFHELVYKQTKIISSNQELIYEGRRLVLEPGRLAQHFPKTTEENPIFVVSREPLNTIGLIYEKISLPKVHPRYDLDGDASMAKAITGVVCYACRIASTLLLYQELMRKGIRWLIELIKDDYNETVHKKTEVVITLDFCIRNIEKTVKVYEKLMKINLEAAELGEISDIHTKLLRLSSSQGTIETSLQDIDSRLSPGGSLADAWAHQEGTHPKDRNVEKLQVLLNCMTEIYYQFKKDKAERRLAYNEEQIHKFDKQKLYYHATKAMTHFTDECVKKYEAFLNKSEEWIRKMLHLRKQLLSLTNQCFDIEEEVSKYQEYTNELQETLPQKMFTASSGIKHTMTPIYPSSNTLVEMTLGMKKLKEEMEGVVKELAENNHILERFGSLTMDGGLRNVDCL

EPHB3 (human) = EPHB3 (human) (UniProt P54753)
PKN2 (human) = PKN2 (human) (UniProt Q16513)
ROCK2 (rat) = settings: accession and sequence are those of the human protein
RPS6KA3 KD1 KD2 (human) = RPS6KA3 KD1 KD2 (human) (UniProt P51812)
EPHA2 (human) = EPHA2 (human) (UniProt P29317)
MAP3K7 TAB1 (human) = MAP3K7 TAB1 (human) (UniProt Q15750+O43318)
[2] = tested on: PAK2 (human), Q13177 [T402E]
Sequence of PAK2 (human), Q13177 [T402E] (Q13177 whole entry T402E, looked up): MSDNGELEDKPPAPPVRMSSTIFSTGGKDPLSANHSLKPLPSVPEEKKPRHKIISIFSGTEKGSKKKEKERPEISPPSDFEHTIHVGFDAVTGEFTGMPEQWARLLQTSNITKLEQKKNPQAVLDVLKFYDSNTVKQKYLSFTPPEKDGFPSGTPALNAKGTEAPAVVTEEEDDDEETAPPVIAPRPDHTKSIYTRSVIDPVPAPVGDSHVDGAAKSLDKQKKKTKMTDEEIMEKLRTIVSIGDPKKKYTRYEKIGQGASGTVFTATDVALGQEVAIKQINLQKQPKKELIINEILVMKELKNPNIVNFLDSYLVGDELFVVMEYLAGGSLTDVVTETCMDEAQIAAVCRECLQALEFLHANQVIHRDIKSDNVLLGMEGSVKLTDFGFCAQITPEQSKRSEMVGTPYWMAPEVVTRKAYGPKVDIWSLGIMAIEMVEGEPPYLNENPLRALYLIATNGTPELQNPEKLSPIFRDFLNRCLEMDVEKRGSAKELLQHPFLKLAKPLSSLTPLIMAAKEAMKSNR

TTK (human) = TTK (human) (UniProt P33981)
Sequence of TTK (human) (P33981 whole entry, looked up): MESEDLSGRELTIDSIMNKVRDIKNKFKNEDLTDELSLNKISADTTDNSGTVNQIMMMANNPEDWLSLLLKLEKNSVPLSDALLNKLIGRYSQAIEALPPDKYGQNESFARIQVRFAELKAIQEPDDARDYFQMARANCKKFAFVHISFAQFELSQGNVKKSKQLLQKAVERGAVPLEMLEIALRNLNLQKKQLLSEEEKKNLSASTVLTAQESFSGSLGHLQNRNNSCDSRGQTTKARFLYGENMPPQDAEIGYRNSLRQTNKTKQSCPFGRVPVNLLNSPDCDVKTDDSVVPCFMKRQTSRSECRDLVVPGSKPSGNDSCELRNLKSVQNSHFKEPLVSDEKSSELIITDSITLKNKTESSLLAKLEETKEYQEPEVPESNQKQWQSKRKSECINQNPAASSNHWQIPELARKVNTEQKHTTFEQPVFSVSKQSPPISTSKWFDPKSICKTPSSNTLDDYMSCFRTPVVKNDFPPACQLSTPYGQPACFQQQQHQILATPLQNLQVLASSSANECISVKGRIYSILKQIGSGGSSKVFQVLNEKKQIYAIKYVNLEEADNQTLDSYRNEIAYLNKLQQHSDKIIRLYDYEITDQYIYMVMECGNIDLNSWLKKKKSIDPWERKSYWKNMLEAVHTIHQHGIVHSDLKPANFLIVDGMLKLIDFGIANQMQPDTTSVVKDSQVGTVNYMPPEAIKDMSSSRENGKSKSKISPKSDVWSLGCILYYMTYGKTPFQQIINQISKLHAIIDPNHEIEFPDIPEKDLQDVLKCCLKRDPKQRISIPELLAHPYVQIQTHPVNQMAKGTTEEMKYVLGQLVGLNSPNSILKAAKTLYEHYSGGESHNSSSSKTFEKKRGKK

MAP3K11 (human) = MAP3K11 (human) (UniProt Q16584)
CDK2 CCNA2 (human) = CDK2 CCNA2 (human) (UniProt P20248+P24941)
MAPK8 (human) = MAPK8 (human) (UniProt P45983)
Sequence of MAPK8 (human) (P45983 whole entry, looked up): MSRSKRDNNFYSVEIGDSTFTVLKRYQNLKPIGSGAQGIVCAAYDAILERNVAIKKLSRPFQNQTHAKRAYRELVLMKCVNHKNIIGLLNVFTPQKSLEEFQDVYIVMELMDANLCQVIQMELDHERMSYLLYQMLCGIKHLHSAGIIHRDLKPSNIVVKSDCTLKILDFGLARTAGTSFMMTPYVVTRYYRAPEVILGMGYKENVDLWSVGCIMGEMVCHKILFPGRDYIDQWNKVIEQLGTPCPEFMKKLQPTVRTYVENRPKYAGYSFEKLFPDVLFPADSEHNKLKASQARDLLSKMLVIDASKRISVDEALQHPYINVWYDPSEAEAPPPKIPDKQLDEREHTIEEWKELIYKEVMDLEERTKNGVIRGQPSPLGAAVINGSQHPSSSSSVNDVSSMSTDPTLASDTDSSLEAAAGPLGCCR

GCK (human) = GCK (human) (UniProt Q12851)
NUAK1 (human) = NUAK1 (human) (UniProt O60285)
CaMK1 (human) = CaMK1 (human) (UniProt Q14012)
MYLK (human) = MYLK (human) (UniProt Q15746)
IKBKB (human) = IKBKB (human) (UniProt O14920)
CHEK1 (human) = CHEK1 (human) (UniProt O14757)
Sequence of CHEK1 (human) (O14757 whole entry, looked up): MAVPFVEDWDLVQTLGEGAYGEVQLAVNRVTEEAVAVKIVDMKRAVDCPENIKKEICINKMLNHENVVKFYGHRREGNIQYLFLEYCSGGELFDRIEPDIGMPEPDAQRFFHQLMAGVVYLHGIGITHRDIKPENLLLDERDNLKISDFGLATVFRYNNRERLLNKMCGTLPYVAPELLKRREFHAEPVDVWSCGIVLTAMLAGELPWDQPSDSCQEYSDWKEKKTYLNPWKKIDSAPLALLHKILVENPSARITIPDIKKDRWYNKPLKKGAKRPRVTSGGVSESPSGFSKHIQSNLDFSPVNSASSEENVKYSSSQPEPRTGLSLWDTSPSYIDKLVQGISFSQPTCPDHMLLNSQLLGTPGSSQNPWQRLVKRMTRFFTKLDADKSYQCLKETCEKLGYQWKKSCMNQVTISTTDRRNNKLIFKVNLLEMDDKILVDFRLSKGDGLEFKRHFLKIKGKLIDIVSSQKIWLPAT

AURKB (human) = AURKB (human) (UniProt Q96GD4)
Sequence of AURKB (human) (Q96GD4 whole entry, looked up): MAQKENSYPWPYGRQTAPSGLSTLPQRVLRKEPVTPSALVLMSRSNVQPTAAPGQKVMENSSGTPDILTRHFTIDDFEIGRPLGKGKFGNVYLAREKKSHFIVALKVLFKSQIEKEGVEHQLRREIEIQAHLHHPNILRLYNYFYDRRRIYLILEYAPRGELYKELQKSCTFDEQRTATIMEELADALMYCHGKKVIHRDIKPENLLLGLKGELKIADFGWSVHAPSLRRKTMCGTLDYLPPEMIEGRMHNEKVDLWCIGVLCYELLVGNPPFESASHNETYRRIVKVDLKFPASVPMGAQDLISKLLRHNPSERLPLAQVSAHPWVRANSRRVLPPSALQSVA

SRC (human) = SRC (human) (UniProt P12931)
CHEK2 (human) = CHEK2 (human) (UniProt O96017)
EPHB1 (human) = EPHB1 (human) (UniProt P54762)
Sequence of EPHB1 (human) (P54762 whole entry, looked up): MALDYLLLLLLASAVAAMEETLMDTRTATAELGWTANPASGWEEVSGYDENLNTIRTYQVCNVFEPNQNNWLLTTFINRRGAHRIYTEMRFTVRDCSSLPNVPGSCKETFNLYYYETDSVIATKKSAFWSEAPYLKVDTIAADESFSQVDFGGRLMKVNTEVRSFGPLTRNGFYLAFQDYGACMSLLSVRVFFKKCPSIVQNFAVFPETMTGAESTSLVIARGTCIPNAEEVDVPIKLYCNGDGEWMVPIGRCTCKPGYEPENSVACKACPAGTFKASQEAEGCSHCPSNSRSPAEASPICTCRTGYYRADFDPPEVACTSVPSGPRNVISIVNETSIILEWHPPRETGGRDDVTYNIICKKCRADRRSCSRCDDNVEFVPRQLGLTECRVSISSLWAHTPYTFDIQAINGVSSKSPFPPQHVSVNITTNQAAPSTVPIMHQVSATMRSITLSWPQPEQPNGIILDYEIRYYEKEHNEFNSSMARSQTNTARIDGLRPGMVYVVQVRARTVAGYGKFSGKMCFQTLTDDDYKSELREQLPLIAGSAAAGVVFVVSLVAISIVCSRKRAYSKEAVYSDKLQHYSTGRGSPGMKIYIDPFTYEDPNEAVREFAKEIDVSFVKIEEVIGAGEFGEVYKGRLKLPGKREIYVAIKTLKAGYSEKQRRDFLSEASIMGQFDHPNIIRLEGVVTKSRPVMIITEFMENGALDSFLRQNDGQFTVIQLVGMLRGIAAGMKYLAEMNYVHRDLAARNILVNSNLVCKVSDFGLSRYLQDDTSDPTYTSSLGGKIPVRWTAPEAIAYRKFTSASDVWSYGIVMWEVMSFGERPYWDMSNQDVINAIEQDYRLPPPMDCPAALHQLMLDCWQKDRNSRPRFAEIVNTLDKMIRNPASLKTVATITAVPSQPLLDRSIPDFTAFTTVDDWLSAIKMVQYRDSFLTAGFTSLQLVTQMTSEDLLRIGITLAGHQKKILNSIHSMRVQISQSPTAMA

Sequence of MST4 (human) (Q9P289 whole entry, looked up): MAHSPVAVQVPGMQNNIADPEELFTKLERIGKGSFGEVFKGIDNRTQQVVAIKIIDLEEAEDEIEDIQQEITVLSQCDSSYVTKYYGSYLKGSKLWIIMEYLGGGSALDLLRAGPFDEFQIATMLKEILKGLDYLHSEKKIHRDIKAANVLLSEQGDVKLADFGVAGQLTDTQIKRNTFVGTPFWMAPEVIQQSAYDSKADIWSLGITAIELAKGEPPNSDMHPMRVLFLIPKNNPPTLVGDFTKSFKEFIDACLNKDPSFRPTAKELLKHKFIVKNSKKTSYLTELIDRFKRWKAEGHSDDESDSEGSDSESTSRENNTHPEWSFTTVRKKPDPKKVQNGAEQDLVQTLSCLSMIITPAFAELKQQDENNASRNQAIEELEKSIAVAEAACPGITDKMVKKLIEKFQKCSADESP

residual activity (CSK (human); compound 0.01 µM): 119%
residual activity (CSK (human); compound 0.1 µM): 101%
residual activity (CSK (human); compound 1.0 µM): 38%
residual activity (DYRK3 (human); compound 0.01 µM): 92%
residual activity (DYRK3 (human); compound 0.1 µM): 92%
residual activity (DYRK3 (human); compound 1.0 µM): 97%
residual activity (LCK (mouse); compound 0.01 µM): 63%
residual activity (LCK (mouse); compound 0.1 µM): 54%
residual activity (LCK (mouse); compound 1.0 µM): 47%
residual activity (TAOK1 (human); compound 0.01 µM): 85%
residual activity (TAOK1 (human); compound 0.1 µM): 69%
residual activity (TAOK1 (human); compound 1.0 µM): 33%
residual activity (PAK4 (human); compound 0.01 µM): 116%
residual activity (PAK4 (human); compound 0.1 µM): 97%
residual activity (PAK4 (human); compound 1.0 µM): 94%
residual activity (MST4 (human); compound 0.01 µM): 100%
residual activity (MST4 (human); compound 0.1 µM): 95%
residual activity (MST4 (human); compound 1.0 µM): 78%
residual activity ([1]; compound 0.01 µM): 98%
residual activity ([1]; compound 0.1 µM): 92%
residual activity ([1]; compound 1.0 µM): 91%
residual activity (EPHB2 (human); compound 0.01 µM): 109%
residual activity (EPHB2 (human); compound 0.1 µM): 43%
residual activity (EPHB2 (human); compound 1.0 µM): 1%
residual activity (EPHA4 (human); compound 0.01 µM): 71%
residual activity (EPHA4 (human); compound 0.1 µM): 12%
residual activity (EPHA4 (human); compound 1.0 µM): 6%
residual activity (MARK2 (human); compound 0.01 µM): 101%
residual activity (MARK2 (human); compound 0.1 µM): 90%
residual activity (MARK2 (human); compound 1.0 µM): 63%
residual activity (PAK6 (human); compound 0.01 µM): 94%
residual activity (PAK6 (human); compound 0.1 µM): 101%
residual activity (PAK6 (human); compound 1.0 µM): 88%
residual activity (MINK1 (human); compound 0.01 µM): 94%
residual activity (MINK1 (human); compound 0.1 µM): 76%
residual activity (MINK1 (human); compound 1.0 µM): 18%
residual activity (MAP2K1 (human); compound 0.01 µM): 107%
residual activity (MAP2K1 (human); compound 0.1 µM): 106%
residual activity (MAP2K1 (human); compound 1.0 µM): 97%
residual activity (MAPK10 (human); compound 0.01 µM): 93%
residual activity (MAPK10 (human); compound 0.1 µM): 77%
residual activity (MAPK10 (human); compound 1.0 µM): 38%
residual activity (TBK1 (human); compound 0.01 µM): 101%
residual activity (TBK1 (human); compound 0.1 µM): 91%
residual activity (TBK1 (human); compound 1.0 µM): 91%
residual activity (EPHB3 (human); compound 0.01 µM): 108%
residual activity (EPHB3 (human); compound 0.1 µM): 61%
residual activity (EPHB3 (human); compound 1.0 µM): 18%
residual activity (PKN2 (human); compound 0.1 µM): 99%
residual activity (PKN2 (human); compound 1.0 µM): 90%
residual activity (ROCK2 (rat); compound 0.01 µM): 90%
residual activity (ROCK2 (rat); compound 1.0 µM): 68%
residual activity (RPS6KA3 KD1 KD2 (human); compound 0.01 µM): 100%
residual activity (RPS6KA3 KD1 KD2 (human); compound 0.1 µM): 92%
residual activity (RPS6KA3 KD1 KD2 (human); compound 1.0 µM): 54%
residual activity (EPHA2 (human); compound 0.01 µM): 51%
residual activity (EPHA2 (human); compound 0.1 µM): 15%
residual activity (EPHA2 (human); compound 1.0 µM): 6%
residual activity (MAP3K7 TAB1 (human); compound 0.1 µM): 110%
residual activity (MAP3K7 TAB1 (human); compound 1.0 µM): 84%
residual activity ([2]; compound 0.01 µM): 87%
residual activity ([2]; compound 0.1 µM): 59%
residual activity ([2]; compound 1.0 µM): 18%
residual activity (TTK (human); compound 0.01 µM): 100%
residual activity (TTK (human); compound 0.1 µM): 92%
residual activity (TTK (human); compound 1.0 µM): 75%
residual activity (MAP3K11 (human); compound 0.01 µM): 105%
residual activity (MAP3K11 (human); compound 0.1 µM): 100%
residual activity (MAP3K11 (human); compound 1.0 µM): 70%
residual activity (CDK2 CCNA2 (human); compound 0.01 µM): 120%
residual activity (CDK2 CCNA2 (human); compound 0.1 µM): 121%
residual activity (CDK2 CCNA2 (human); compound 1.0 µM): 106%
residual activity (MAPK8 (human); compound 0.01 µM): 94%
residual activity (MAPK8 (human); compound 0.1 µM): 107%
residual activity (MAPK8 (human); compound 1.0 µM): 86%
residual activity (GCK (human); compound 0.01 µM): 103%
residual activity (GCK (human); compound 0.1 µM): 72%
residual activity (GCK (human); compound 1.0 µM): 21%
residual activity (NUAK1 (human); compound 0.01 µM): 97%
residual activity (NUAK1 (human); compound 0.1 µM): 93%
residual activity (NUAK1 (human); compound 1.0 µM): 64%
residual activity (CaMK1 (human); compound 0.01 µM): 97%
residual activity (CaMK1 (human); compound 0.1 µM): 90%
residual activity (CaMK1 (human); compound 1.0 µM): 90%
residual activity (MYLK (human); compound 0.01 µM): 99%
residual activity (MYLK (human); compound 0.1 µM): 89%
residual activity (MYLK (human); compound 1.0 µM): 91%
residual activity (IKBKB (human); compound 0.01 µM): 83%
residual activity (IKBKB (human); compound 0.1 µM): 95%
residual activity (IKBKB (human); compound 1.0 µM): 99%
residual activity (CHEK1 (human); compound 0.01 µM): 95%
residual activity (CHEK1 (human); compound 0.1 µM): 100%
residual activity (CHEK1 (human); compound 1.0 µM): 86%
residual activity (AURKB (human); compound 0.01 µM): 93%
residual activity (AURKB (human); compound 0.1 µM): 92%
residual activity (AURKB (human); compound 1.0 µM): 91%
residual activity (SRC (human); compound 0.01 µM): 45%
residual activity (SRC (human); compound 0.1 µM): 9%
residual activity (SRC (human); compound 1.0 µM): 3%
residual activity (CHEK2 (human); compound 0.01 µM): 89%
residual activity (CHEK2 (human); compound 0.1 µM): 75%
residual activity (CHEK2 (human); compound 1.0 µM): 34%
residual activity (EPHB1 (human); compound 0.01 µM): 62%
residual activity (EPHB1 (human); compound 0.1 µM): 49%
residual activity (EPHB1 (human); compound 1.0 µM): 2%
SMILES: COc1ccc(N(C(=O)Nc2c(C)cccc2C)c2cc(Nc3ccc(N4CCN(C)CC4)cc3)ncn2)c(OC)c1
